Results on eight molecules are retold here after patent US10137182B2, “Cancer vaccines and vaccination methods” (ImmunoCellular Therapeutics, Ltd., priority 2013, dated 2018).

“Also recorded” adds a separate entry of the source. Like-named read-outs stand apart in the source and are kept apart here. Where no end group is shown, it is not given here.

One data set has as its target HLA-A*0201 molecules (Homo sapiens, UniProt P04439, D140Y/D185E/D98H/E176V/E277Q/G131W/G231S/I119V/I121R/I166T/I218V/L300P/L318F/N151K/N90K/P208A/P217A/Q86G/Q94H/R138H/R169H/T345S). As to the kind of experiment: T2 cell binding assay of HLA-A2 peptides (upregulation of HLA-A2 on T2 cells, MFI by flow cytometry). To be noted: for binding affinity to HLA-A*0201 molecules / T2 cells (in words): peptide 75 μg/ml, overnight.

The nature of data set [1]: Immunogenicity in vitro of A2 peptide epitopes (Table 1). To be noted: A2 peptide epitope(s) of Exemplary Vaccine 1; no method given.
The test system of data set [2] is HLA-A2+ human ovarian cancer stem cells 1031CSC.
Protocol: (§1) Human monocyte-derived DCs were generated using previously described methods. […] The DCs were washed and plated in 6-well plates at a concentration of 5 ×10^6 cells/well IFN-γ (1000 unit/ml), and then monophosphoryl lipid A (MPLA, 20-50μg/ml) (Cat# L6895, Sigma, St. Louis) was added into the wells to mature the DC for 24hr or 48 hrs.
(§2) In order to evaluate antigen-specific immune responses, CD8^+ T cells were isolated from fresh or frozen apheresis by positive selection using Dynabeads® CD8 Positive Isolation Kit (Life Technologies, Grand Island, N.Y.) and co-cultured with autologous mDC for four weeks. DCs were added weekly. Briefly, mDCs were pulsed with synthetic peptides (10 μg/μl) for 6-8 hours at 37° C., and then treated with 20 ug/ml Mitomycin C (Sigma-Aldrich, St. Louis, Mo.) for 25 min at 37° C. and 5% CO2. The mDCs (5×10^4 cells/well) were co-cultured with autologous CD8^+ T cells (5×10^5 cells/well) in a 96-well plate at 37° C., 5% CO2 in a final volume of 200 μl CTL medium (IMDM with 0.24 mM Asparagine, 0.55 mM L-Arginine, 1.5 mM L-Glutamine and 10% heat inactivated human AB serum). Half of the medium was replaced every other day by fresh culture medium containing 40 IU/ml IL-2 and 20 ng/ml IL-7, the 3rd and 4th week 40 U/ml of IL-2 was replaced with 25 ng/ml IL-15. In the culture medium, peptides could also be added to the culture well at a final concentration of 1-2 μg/ml.
(§3) DDAO-SE labeled target cells were mixed with effector cells at a 1:10 ratio in round-bottom 96 well plate and incubated overnight at 37° C., 5% CO2. The cells were washed, fixed, and permeabilized with Fix/Perm solution (BD Biosciences) and then stained for 30 minutes at 4° C. with 10 μl PE-labeled anti-cleaved caspase-3 monoclonal antibody, followed by Cyan flow cytometric analysis (Beckman Coulter, Inc).
In data set [3] the test system is HLA-A2+ human ovarian cancer stem cells 882CSC.
Protocol: as §1, §2, §3
The test system is the same in data set [4]. Briefly: Killing assay (DDAO-SE / cleaved caspase-3) with peptide-specific CTLs against 882CSC. To be noted: CTLs induced by peptide-pulsed HLA-A2+ DC; target:effector 1:10, overnight.
Protocol: as §1, §2, §3
Data set [5] concerns HLA-A2+ human ovarian cancer stem cells 1031CSC. Briefly: Killing assay (DDAO-SE / cleaved caspase-3) with peptide-specific CTLs against 1031CSC. Conditions: CTLs induced by peptide-pulsed HLA-A2+ DC; target:effector 1:10, overnight.
Protocol: as §1, §2, §3

For the molecule “KVLEYVIKV (listed as Homo sapiens) [MAGE-A1 p278]”, the “binding affinity to HLA-A*0201 molecules / T2 cells (in words)” value with HLA-A*0201 molecules is reported as “high affinity binding”. Also, in data set [1], the Immunogenicity in vitro result is “Yes”.

As to “VLPLTVAEV (listed as Homo sapiens) [mesothelin p531]”, the “binding affinity to HLA-A*0201 molecules / T2 cells (in words)” value with HLA-A*0201 molecules was “high affinities”; with HLA-A*0201 molecules (listed as mesothelinp531), “high affinity binding”. Besides, the Immunogenicity in vitro entry in data set [1] is “Yes”.

On to `CSCC[C@H](NC(=O)[C@@H](N)C(C)C)C(=O)N[C@@H](C)C(=O)NCC(=O)N[C@H](C(=O)NCC(=O)N[C@@H](CO)C(=O)N1CCC[C@H]1C(=O)N[C@@H](Cc1ccc(O)cc1)C(=O)N[C@H](C(=O)O)C(C)C)C(C)C` [HER2 p773], for which, in data set [2], the “cytotoxicity of peptide-specific CTLs against 1031CSC” value (from here on “cytotoxicity … against 1031CSC”) was “can efficiently recognize and lyse”. Further, the “cytotoxicity of peptide-specific CTLs against 882CSC” value (“cytotoxicity … against 882CSC” for short) in data set [3] was “can efficiently recognize and lyse”.

Take SLLFLLFSL (listed as Homo sapiens): the Immunogenicity in vitro entry in data set [1] is “Yes”.

As to “EIWTHSYKV (listed as Homo sapiens) [FOLR1 p191]”, the “MFI index (relative binding affinity fluorescence index, FI)” value in the data set with HLA-A*0201 molecules (T2 cells incubated overnight with peptide 75 μg/ml and β2-microglobulin, FI = MFI(peptide)−MFI(untreated cells)/MFI(untreated cells)) is “less than 1”. Besides, the “binding affinity to HLA-A*0201 molecules / T2 cells (in words)” value is reported as “lower affinity binding” in the data set with HLA-A*0201 molecules and “low affinity; also recorded: lower binding capacity” in the data set with HLA-A*0201 molecules (listed as FOLR1p191). Moreover, the Immunogenicity in vitro result in data set [1] is given as “Yes”.

On to SLLMWITQC [NY-ESO-1 p157], for which, in data set [1], the Immunogenicity in vitro entry is on record as “Yes”.

Turning to WLPFGFILI [IL-13Rα2 p345], the “cytotoxicity … against 882CSC” value in data set [4] is “can efficiently recognize and lyse”. Further, the “cytotoxicity … against 1031CSC” value in data set [5] was “can efficiently recognize and lyse”.

As for TLADFDPRV [EphA2 p883], the “cytotoxicity … against 882CSC” value in data set [4] is “can efficiently recognize and lyse”. For the same molecule, the “cytotoxicity … against 1031CSC” value in data set [5] was “can efficiently recognize and lyse”.
